Each structure is given as a SMILES string.

Recombinant human TDO, sequence (P48775 whole entry): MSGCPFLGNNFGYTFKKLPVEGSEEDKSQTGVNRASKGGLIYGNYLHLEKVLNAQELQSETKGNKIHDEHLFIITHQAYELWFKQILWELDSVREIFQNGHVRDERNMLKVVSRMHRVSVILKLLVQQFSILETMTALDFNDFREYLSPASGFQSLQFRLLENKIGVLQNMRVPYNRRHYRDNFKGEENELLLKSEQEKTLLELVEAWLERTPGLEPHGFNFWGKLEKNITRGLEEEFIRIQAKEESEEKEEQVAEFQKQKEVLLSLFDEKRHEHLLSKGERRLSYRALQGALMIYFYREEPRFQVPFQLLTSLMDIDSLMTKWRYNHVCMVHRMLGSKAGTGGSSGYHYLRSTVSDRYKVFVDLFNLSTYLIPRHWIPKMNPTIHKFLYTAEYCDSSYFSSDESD
T1 sequence (P48775 whole entry): as above
T2 sequence (P14902 whole entry): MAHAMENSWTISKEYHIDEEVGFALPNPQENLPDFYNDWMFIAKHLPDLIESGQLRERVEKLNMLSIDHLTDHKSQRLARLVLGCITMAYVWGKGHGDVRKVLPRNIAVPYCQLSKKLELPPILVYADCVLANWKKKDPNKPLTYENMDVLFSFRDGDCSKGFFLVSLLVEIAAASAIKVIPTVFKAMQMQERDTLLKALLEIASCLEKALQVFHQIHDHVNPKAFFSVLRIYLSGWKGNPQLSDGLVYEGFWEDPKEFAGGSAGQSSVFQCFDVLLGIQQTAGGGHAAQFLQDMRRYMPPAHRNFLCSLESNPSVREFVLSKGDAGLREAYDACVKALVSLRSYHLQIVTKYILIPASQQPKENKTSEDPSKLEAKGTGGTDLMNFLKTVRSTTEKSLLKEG
Recombinant human IDO, sequence (P14902 whole entry): as above

One assay addresses T1, TDO (A172 human glioblastoma cells) (Homo sapiens, UniProt P48775).
T1 construct: This assay utilised cancer cells which expressed either TDO or IDO; endogenous in cells; host or cells: A172 human glioblastoma cells
The experiment in a line: A172 Kynurenine cell based assay. The conditions noted are these: 500 μM L-tryptophan, 48 hours, kynurenine by Erhlich's reagent. Put shortly:
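Kynurenine released into the supernatant was quantified by absorbance at 490 nm after 5 min with Erhlich's reagent. A172 cells were seeded at 30,000/well and exposed to test compound for 48 hours at 37° C. in phenol red-free RPMI containing 500 μM L-tryptophan, 10% FCS and 2 mM L-glutamine.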
As for `CC(=O)N1CCC(c2c[nH]c3ccccc23)CC1` [Compound 1], the “A172 Kynurenine cell based assay pIC50” value was “++ (++ = pIC50 5.00-5.99)”.
Still for that read-out and setting: the result for `CS(=O)(=O)N1CCC(c2c[nH]c3ccccc23)CC1` [Compound 3] reads “++ (++ = pIC50 5.00-5.99)”; that for `Cn1cnc(S(=O)(=O)N2CCC(c3c[nH]c4ccccc34)CC2)c1` [Compound 4], “+ (+ = pIC50 4.00-4.99)”; that for `CCCS(=O)(=O)N1CC=C(c2c[nH]c3cc(F)ccc23)CC1` [Compound 7], “+++ (+++ = pIC50 ≥6.00)”.
Same read-out and setting: the result for `Cc1cc(C(=O)N2CCC(c3c(C)[nH]c4ccccc34)CC2)no1` [Compound 8] reads “+− (+− = pIC50 <4.00)”.
In the case of `Cc1ccc(S(=O)(=O)N2CCC(c3c[nH]c4ccccc34)CC2)cc1` [Compound 9], the “A172 Kynurenine cell based assay pIC50” value is recorded as “+ (+ = pIC50 4.00-4.99)”.
Still for that read-out and setting: the entry for `FC(F)(F)CN1CCC(c2c[nH]c3ccccc23)CC1` [Compound 10] is “+ (+ = pIC50 4.00-4.99)”.
For the compound `O=C(c1cccs1)N1CCC(c2c[nH]c3ccccc23)CC1` [Compound 11], the “A172 Kynurenine cell based assay pIC50” value is “+ (+ = pIC50 4.00-4.99)”.
On the same count and under the same terms, the result for `O=S(=O)(c1cccs1)N1CC=C(c2c[nH]c3ncccc23)CC1` [Compound 13] reads “+− (+− = pIC50 <4.00)”; that for `Cc1ccc(S(=O)(=O)N2CCC(c3c[nH]c4ccccc34)CC2)c(C)c1` [Compound 14], “+ (+ = pIC50 4.00-4.99)”.
Still for that read-out and setting: the entry for `COc1ccc2[nH]cc(C3CCN(C(=O)C(C)C)CC3)c2c1` [Compound 15] is “+− (+− = pIC50 <4.00)”.

A further assay addresses Recombinant human TDO (Homo sapiens, UniProt P48775). Description: hTDO biochemical coupled assay. The conditions noted are these: 330 μM L-tryptophan, coupled with kynurenine formamidase. The method, then:
(§1) Exemplary compounds of the invention were prepared, and tested to determine their effect as TDO and/or IDO inhibitors. Two different assays were employed: 1. a cell-based assay for detecting the effect of test compounds on kynurenine production in two different cancer cell types. This assay utilised cancer cells which expressed either TDO or IDO and as such was used as a means of testing compound activity at these two enzymes in a cell-based context. 2. a TDO and IDO biochemical coupled assay which utilised recombinantly produced and purified TDO and IDO enzymes in combination with the enzyme formamidase. This coupled enzyme system allowed conversion of N-formylkynurenine produced by TDO or IDO activity to kynurenine which was then quantified by fluorescence following addition of Erhlich's Reagent The protocols for these are set out below.
Recombinant human IDO or TDO was incubated in 50 mM KPO4 (pH 7.0), 0.5 mM EGTA, 0.5 mM EDTA, 0.05% Triton™ X100, 20 mM ascorbate, 10 μM methylene blue, 500 U/ml catalase, 50 μg/ml KynB (kynurenine formamidase). TDO assays were carried out in the presence of 330 μM L-tryptophan, while IDO assays had the addition of 45 μM L-tryptophan. After incubation for 17 minutes at room temperature the reactions were stopped by the addition of Erhlich's reagent and incubated at room temperature for 5 minutes before the fluorescence was read (Ex475, Em530).
As for `CC(=O)N1CCC(c2c[nH]c3ccccc23)CC1` [Compound 1], the “hTDO biochemical assay pIC50” value is on record as “+− (+− = pIC50 <4.00)”.
The same measure, in the same setting: the entry for `CS(=O)(=O)N1CCC(c2c[nH]c3ccccc23)CC1` [Compound 3] is “++ (++ = pIC50 5.00-5.99)”; for `Cn1cnc(S(=O)(=O)N2CCC(c3c[nH]c4ccccc34)CC2)c1` [Compound 4] it is “+ (+ = pIC50 4.00-4.99)”; for `CCCS(=O)(=O)N1CC=C(c2c[nH]c3cc(F)ccc23)CC1` [Compound 7] it is “++ (++ = pIC50 5.00-5.99)”.
On the same count and under the same terms, the entry for `Cc1cc(C(=O)N2CCC(c3c(C)[nH]c4ccccc34)CC2)no1` [Compound 8] is “+− (+− = pIC50 <4.00)”; for `Cc1ccc(S(=O)(=O)N2CCC(c3c[nH]c4ccccc34)CC2)cc1` [Compound 9] it is “+− (+− = pIC50 <4.00)”.
On to `FC(F)(F)CN1CCC(c2c[nH]c3ccccc23)CC1` [Compound 10], for which the “hTDO biochemical assay pIC50” value was “+− (+− = pIC50 <4.00)”.
On the same count and under the same terms, the entry for `O=C(c1cccs1)N1CCC(c2c[nH]c3ccccc23)CC1` [Compound 11] is “+− (+− = pIC50 <4.00)”; for `O=S(=O)(c1cccs1)N1CC=C(c2c[nH]c3ncccc23)CC1` [Compound 13] it is “+− (+− = pIC50 <4.00)”; for `Cc1ccc(S(=O)(=O)N2CCC(c3c[nH]c4ccccc34)CC2)c(C)c1` [Compound 14] it is “+− (+− = pIC50 <4.00)”.
On the same count and under the same terms, the result for `COc1ccc2[nH]cc(C3CCN(C(=O)C(C)C)CC3)c2c1` [Compound 15] reads “+− (+− = pIC50 <4.00)”.

The next assay has as its target Recombinant human IDO (Homo sapiens, UniProt P14902). The experiment in a line: hIDO biochemical coupled assay. The conditions noted are these: 45 μM L-tryptophan, coupled with kynurenine formamidase. The procedure:
as §1
Recombinant human IDO or TDO was incubated in 50 mM KPO4 (pH 7.0), 0.5 mM EGTA, 0.5 mM EDTA, 0.05% Triton™ X100, 20 mM ascorbate, 10 μM methylene blue, 500 U/ml catalase, 50 μg/ml KynB (kynurenine formamidase).
Take `CC(=O)N1CCC(c2c[nH]c3ccccc23)CC1` [Compound 1]: the “hIDO biocehmical assay pIC50” value is on record as “+− (+− = pIC50 <4.00)”.
Same read-out and setting: the result for `CS(=O)(=O)N1CCC(c2c[nH]c3ccccc23)CC1` [Compound 3] reads “+− (+− = pIC50 <4.00)”.
The same measure, in the same setting: the result for `Cn1cnc(S(=O)(=O)N2CCC(c3c[nH]c4ccccc34)CC2)c1` [Compound 4] reads “+− (+− = pIC50 <4.00)”; that for `CCCS(=O)(=O)N1CC=C(c2c[nH]c3cc(F)ccc23)CC1` [Compound 7], “+− (+− = pIC50 <4.00)”.
Still for that read-out and setting: the result for `Cc1cc(C(=O)N2CCC(c3c(C)[nH]c4ccccc34)CC2)no1` [Compound 8] reads “+− (+− = pIC50 <4.00)”; that for `Cc1ccc(S(=O)(=O)N2CCC(c3c[nH]c4ccccc34)CC2)cc1` [Compound 9], “+− (+− = pIC50 <4.00)”; that for `FC(F)(F)CN1CCC(c2c[nH]c3ccccc23)CC1` [Compound 10], “+− (+− = pIC50 <4.00)”.
Consider `O=C(c1cccs1)N1CCC(c2c[nH]c3ccccc23)CC1` [Compound 11], for which the “hIDO biocehmical assay pIC50” value is reported as “+− (+− = pIC50 <4.00)”.
Regarding `O=S(=O)(c1cccs1)N1CC=C(c2c[nH]c3ncccc23)CC1` [Compound 13], the “hIDO biocehmical assay pIC50” value is reported as “+− (+− = pIC50 <4.00)”.
As to `Cc1ccc(S(=O)(=O)N2CCC(c3c[nH]c4ccccc34)CC2)c(C)c1` [Compound 14], the “hIDO biocehmical assay pIC50” value is reported as “+− (+− = pIC50 <4.00)”.
Still for that read-out and setting: the result for `COc1ccc2[nH]cc(C3CCN(C(=O)C(C)C)CC3)c2c1` [Compound 15] reads “+− (+− = pIC50 <4.00)”.

The next assay concerns the target T2, IDO (SKOV3 human ovarian adenocarcinoma cells, IFN-γ induced) (Homo sapiens, UniProt P14902).
T2 construct: IDO expression was induced in the SKOV3 cells by the addition of 500 ng/ml IFN-γ; endogenous in cells; host or cells: SKOV3 human ovarian adenocarcinoma cells, induced with IFN-γ
Description: SKOV3 Kynurenine cell based assay. The conditions noted are these: IDO induced by 500 ng/ml IFN-γ, 500 μM L-tryptophan, 48 hours. Put shortly:
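Kynurenine in the supernatant, detected by Ehrlich's reagent, served as read-out after 48 h at 37° C with or without test compound. SKOV3 cells (40,000/well) were grown in phenol red-free RPMI, 10% FCS, 2 mM L-glutamine, 500 μM L-tryptophan, with 500 ng/ml IFN-γ to induce IDO.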
On to `CC(=O)N1CCC(c2c[nH]c3ccccc23)CC1` [Compound 1], for which the “SKOV3 Kynurenine cell based assay pIC50” value was “+ (+ = pIC50 4.00-4.99)”.
On the same count and under the same terms, the entry for `CS(=O)(=O)N1CCC(c2c[nH]c3ccccc23)CC1` [Compound 3] is “+− (+− = pIC50 <4.00)”; for `Cn1cnc(S(=O)(=O)N2CCC(c3c[nH]c4ccccc34)CC2)c1` [Compound 4] it is “+− (+− = pIC50 <4.00)”; for `CCCS(=O)(=O)N1CC=C(c2c[nH]c3cc(F)ccc23)CC1` [Compound 7] it is “+ (+ = pIC50 4.00-4.99)”.
On the same count and under the same terms, the entry for `Cc1cc(C(=O)N2CCC(c3c(C)[nH]c4ccccc34)CC2)no1` [Compound 8] is “+ (+ = pIC50 4.00-4.99)”.
Same read-out and setting: the result for `Cc1ccc(S(=O)(=O)N2CCC(c3c[nH]c4ccccc34)CC2)cc1` [Compound 9] reads “+ (+ = pIC50 4.00-4.99)”.
Turning to `FC(F)(F)CN1CCC(c2c[nH]c3ccccc23)CC1` [Compound 10], the “SKOV3 Kynurenine cell based assay pIC50” value was “+− (+− = pIC50 <4.00)”.
The same measure, in the same setting: the result for `O=C(c1cccs1)N1CCC(c2c[nH]c3ccccc23)CC1` [Compound 11] reads “+ (+ = pIC50 4.00-4.99)”; that for `O=S(=O)(c1cccs1)N1CC=C(c2c[nH]c3ncccc23)CC1` [Compound 13], “++ (++ = pIC50 5.00-5.99)”.
Same read-out and setting: the result for `Cc1ccc(S(=O)(=O)N2CCC(c3c[nH]c4ccccc34)CC2)c(C)c1` [Compound 14] reads “+− (+− = pIC50 <4.00)”.
As for `COc1ccc2[nH]cc(C3CCN(C(=O)C(C)C)CC3)c2c1` [Compound 15], the “SKOV3 Kynurenine cell based assay pIC50” value is recorded as “+ (+ = pIC50 4.00-4.99)”.

The values are drawn from US9931347B2, “Pharmaceutical compound” (IOmet Pharma Ltd., priority 2013, dated 2018).
